Patent publication US10703698B2, “Compounds which activate estrogen receptors and compositions and methods of using the same” (The Board of Trustees of the University of Illinois, priority 2016, dated 2020)
Entries after “also recorded” stand apart in the source; their conditions may differ.

Assays:
[1] = target: T1, purified full-length human ERα (Homo sapiens, UniProt P03372); assay: competitive radiometric binding assay, relative binding affinity (RBA); conditions: relative to estradiol = 100
T1 construct: using purified full-length human ERα and ERβ
T1 sequence (P03372 1-595): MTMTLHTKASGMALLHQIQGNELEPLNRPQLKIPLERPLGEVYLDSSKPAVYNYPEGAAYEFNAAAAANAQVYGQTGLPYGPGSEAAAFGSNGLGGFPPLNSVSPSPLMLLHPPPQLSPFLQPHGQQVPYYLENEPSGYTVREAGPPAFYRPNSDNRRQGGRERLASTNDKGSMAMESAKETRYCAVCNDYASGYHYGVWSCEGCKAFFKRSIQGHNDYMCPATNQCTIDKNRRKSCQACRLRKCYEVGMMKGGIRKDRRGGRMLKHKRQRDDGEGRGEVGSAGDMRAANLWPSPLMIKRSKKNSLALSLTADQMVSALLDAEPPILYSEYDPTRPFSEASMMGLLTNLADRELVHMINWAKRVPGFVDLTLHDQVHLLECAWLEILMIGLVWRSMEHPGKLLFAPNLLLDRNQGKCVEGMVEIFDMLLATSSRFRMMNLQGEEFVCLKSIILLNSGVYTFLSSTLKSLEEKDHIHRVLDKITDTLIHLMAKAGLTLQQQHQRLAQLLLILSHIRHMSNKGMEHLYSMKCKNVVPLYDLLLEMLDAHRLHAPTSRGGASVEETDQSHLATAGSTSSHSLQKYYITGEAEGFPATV
Description: (§1) FIG. 1. […] […]

[2] = target: T2, purified full-length human ERβ (Homo sapiens, UniProt Q92731); assay: as above; conditions: relative to estradiol = 100
T2 construct: using purified full-length human ERα and ERβ
Description: as §1

[3] = system: LRRC54 gene; assay: LRRC54 (non-genomic gene) mRNA expression, qPCR; conditions: MCF-7 cells; 1 μM PaPE or 10 nM E2 for 4 h where stated; versus vehicle, E2 or compound 2
Description: (§2) Quantitation of signal intensities is shown in panel at the right.

[4] = system: LRRC54 gene vs PgR gene; assay: preferential activation of non-genomic (LRRC54) over genomic (PgR) gene; conditions: relative to activation by E2
[5] = system: PgR gene; assay: PgR (genomic gene) mRNA expression, qPCR; conditions: MCF-7 cells; 1 μM PaPE or 10 nM E2 for 4 h where stated; versus vehicle or E2
Description: as §2

[6] = system: eNOS; assay: eNOS activation in primary endothelial cells (14C-L-arginine to 14C-L-citrulline); type: cell-based, bovine; conditions: 15 min; 10 nM ligand (FIG. 9E)
[7] = system: MCF-7 cells; assay: oleic acid (OA)-induced MCF-7 cell proliferation, WST1; conditions: 100 nM OA, agent 1 μM, 6 days
Description: Screening of FFAs for stimulating effects on cell proliferation. […] FFA mix contains all the single free fatty acids tested in this experiment. Lipid mix (mixture of cholesterol and fatty acids) was purchased from Sigma. Six replicates were used in each assay, and the experiment was repeated twice. […] Mean±SEM is plotted.
(D) OA effect on MCF-7 cell proliferation with and without PaPE-1. Dose-response of OA on cell proliferation was tested alone or in combination with and without PaPE-1 (1 μM) for 6 days before WST1 assay. The experiment has six technical replicates and was repeated twice. A two-way analysis of variance (ANOVA) model was fitted to assess the contribution of OA dose and inhibitor (Ctrl, and PaPE-1) treatment on MCF-7 cell proliferation. When the main effects were statistically significant at α=0.05, pairwise t-tests with a Bonferroni correction were employed to identify if treatment were statistically different from each other. **** p<0.0001. Mean±SEM is plotted. […] In the above cell proliferation experiments, MCF-7 cells were treated in whole growth medium adding the designated compounds. The treatment went for 6 days and OD at 450 was measured by WST1 assay. […] The experiment is repeated twice. A two-way analysis of variance (ANOVA) model was fitted to assess the contribution of ligand (Veh or OA) and inhibitor (Ctrl, 4-OH-Tam, Fulv, RAD001 and PaPE-1) treatment on MCF-7 cell proliferation. When the main effects were statistically significant at α=0.05, pairwise t-tests with a Bonferroni correction were employed to identify if treatment were statistically different from each other. **** p<0.0001. Mean±SEM is plotted. […] The MCF-7 cells were treated with Veh, 1 μM 4-OH-tam, 1 μM Fulv, and 1 μM PaPE-1 for six days before WST-1 assay in serum from 63 obese individuals (Left) and in standard cell culture (Right).

T2 sequence (Q92731 whole entry): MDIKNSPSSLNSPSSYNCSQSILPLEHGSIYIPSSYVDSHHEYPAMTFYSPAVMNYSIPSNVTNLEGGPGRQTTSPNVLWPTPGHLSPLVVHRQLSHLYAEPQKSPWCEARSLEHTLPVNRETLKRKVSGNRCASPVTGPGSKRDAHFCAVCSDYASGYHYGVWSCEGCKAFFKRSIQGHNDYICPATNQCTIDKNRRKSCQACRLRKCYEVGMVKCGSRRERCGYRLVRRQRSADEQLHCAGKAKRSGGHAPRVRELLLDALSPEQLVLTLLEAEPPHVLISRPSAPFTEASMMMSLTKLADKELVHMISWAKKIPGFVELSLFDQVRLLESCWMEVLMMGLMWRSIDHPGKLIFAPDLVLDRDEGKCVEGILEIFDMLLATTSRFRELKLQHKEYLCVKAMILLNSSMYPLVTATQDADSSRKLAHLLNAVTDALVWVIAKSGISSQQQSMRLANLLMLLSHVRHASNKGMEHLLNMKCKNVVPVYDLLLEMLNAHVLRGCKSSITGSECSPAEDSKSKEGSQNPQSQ

ERα RBA (relative binding affinity) [1]	ERβ RBA (relative binding affinity) [2]	SMILES	LRRC54 (non-genomic gene) mRNA expression, in words [3]	preference for activation of the non-genomic pathway (LRRC54 over PgR), in words [4]	PgR (genomic gene) mRNA expression, in words [5]	eNOS / NOS activity [6]	OA-induced MCF-7 cell proliferation with added agent [7]
<0.001	~0.001	Cc1cc(-c2ccc(CO)c(O)c2)cc(C)c1O [Compound 60, 4-(hydroxymethyl)-3′,5′-dimethyl-[1,1′-biphenyl]-3,4′-diol]	expression level is less than for compound 2	selective expression of the non-genomic LRRC54 gene compared to E2	–	–	–
–	–	O=C(c1ccc(OCCN2CCCCC2)cc1)c1c(-c2ccc(O)cc2)sc2cc(O)ccc12 [Raloxifene, reference compound]	blocks expression of both the non-genomic LRRC54 and genomic PgR genes	Neither Raloxifene (RAL) nor hydroxytamoxifen (TOT) show selective activation of the non-genomic gene LRRC54	blocks expression of both the non-genomic LRRC54 and genomic PgR genes	–	–
0.002 ± 0.001	0.004 ± 0.003	Cc1cc(-c2ccc3c(c2)CCCC3O)cc(C)c1O (stereo not shown) [Compound 16, 6-(4-hydroxy-3,5-dimethylphenyl)-1,2,3,4-tetrahydronaphthalen-1-ol]	–	some selectivity for the non-genomic gene but less than that of compound 2	–	increased NOS activity	–
<0.001	<0.001	Cc1cc(-c2ccc3c(c2)CCC3O)cc(CO)c1O (stereo not shown) [Compound 56, 5-(4-hydroxy-3-(hydroxymethyl)-5-methylphenyl)-2,3-dihydro-1H-inden-1-ol]	increases the expression of the non-genomic LRRC54 gene	considerable non-genomic gene selectivity	–	–	–
0.002 ± 0.001	0.005 ± 0.003	Cc1cc(-c2ccc(C(C)O)cc2)cc(C)c1O (stereo not shown) [Compound 15, 4′-(1-hydroxyethyl)-3,5-dimethyl-[1,1′-biphenyl]-4-ol]	–	some selectivity for the non-genomic gene but less than that of compound 2	–	increased NOS activity	–
–	–	CC(=O)NCCNC(=O)CCC(C)(c1ccc(O)cc1)c1ccc(O)cc1 [PaPE-4, Diphenolic acid-NHEtNHAc]	–	–	–	increased NOS activity	–
–	–	CO[C@H]1C[C@@H]2CC[C@@H](C)[C@@](O)(O2)C(=O)C(=O)N2CCCC[C@H]2C(=O)O[C@H]([C@H](C)C[C@@H]2CC[C@@H](OCCO)[C@H](OC)C2)CC(=O)[C@H](C)/C=C(\C)[C@@H](O)[C@@H](OC)C(=O)[C@H](C)C[C@H](C)/C=C/C=C/C=C/1C [RAD001]	–	–	–	–	blocked OA-induced cell proliferation; also recorded: suppressed
0.005	0.006	Oc1c(Cl)cc(-c2ccc3c(c2)CCC3O)cc1Cl (stereo not shown) [Compound 63, 5-(3,5-dichloro-4-hydroxyphenyl)-2,3-dihydro-1H-inden-1-ol]	two-fold less than that of compound 2	stimulates the non-genomic gene LRRC54 selectively	–	–	–
